# Assay results taken from patent publication US20260365611A1, “CRYSTALLINE SALTS OF 2-PHENYL-2-AMINOCYCLOHEXAN-1-ONE DERIVATIVES” (priority 2023, published 2026).
# Experiment: Polymorph screening (slurry, anti-solvent addition, thermal cycling, slow evaporation, vapor diffusion, polymer-induced crystallization)
# Assay type: physicochemical
# Parameters: key: CL: Clear Liquid; HCl-1: Form 1 polymorph; HCl-2: Mixture of Polymorphs of Form 1 and Form 2
# Method: Based on the approximate solubility of the product of Example 1 (1R HCl Form 1), screening experiments were conducted to find potential additional crystalline forms (polymorphs) using different screening techniques including, but not limited to, slow evaporation, slow cooling, anti-solvent addition, slurry at RT and 50 °C, temperature cycling, diffusion (solid and liquid), and polymer induced crystallization. The various procedures are outlined hereinbelow.
# ~40 mg of the product of Example 1 was slurried in 0.5-1.0 mL of different solvents in a 4.0 mL glass vial using a magnetic stirrer at RT. The solids in the slurry were stirred for 7 days.
# ~40 mg of the product of Example 1 was slurried in 0.5-1.0 mL of different solvents in a 4.0 mL glass vial using a magnetic stirrer at 50 °C. […]. The solids in the slurry were stirred for 3 days.
# ~40 mg of the product of Example 1 was dissolved in a solvent to create a saturated solution and an anti-solvent was added up to 10 volume ratios. The solids, if any, were collected.
# ~40 mg of the product of Example 1 was dissolved in a solvent, heated, and cooled following temperature cycles of 45 °C/1h→35 °C/4h→25 °C/4h→15 °C/4h→5 °C/4 h for 7 days. The obtained solids (if any) were collected after 7 days.
# ~40 mg of the product of Example 1 was dissolved in a solvent in a vial to create a saturated solution. The vial opening was covered with parafilm or aluminum foil (2-holes). The vials were kept at RT under the hood. The obtained solids (if any) were collected after 7 days.
# ~40 mg of the product of Example 1 was dissolved in a solvent to create a saturated solution in a 4.0 mL glass vial. The vial was placed in a 20 mL glass vial containing an anti-solvent. The obtained solids were collected after 7-10 days.
# ~40 mg of the product of Example 1 was kept in a 4.0 mL glass vial; this vial was placed in a 20 mL glass vial containing a solvent. The solids were collected after 7-10 days.
# ~40 mg of the product of Example 1 and 2.0 mg of the listed polymer were added to a solvent and kept stirring at RT. The solids in slurry or precipitated solids from solution were collected after 7 days.
compound,measurement,setting,value
"CN[C@@]1(c2ccc(F)cc2)CCCCC1=O.Cl [1R HCl, (R)-2-(4-fluorophenyl)-2-(methylamino)cyclohexan-1-one hydrochloride]",Crystal Form,"anti-solvent addition, DCM / 1,4-dioxane",CL
same,Crystal Form,"anti-solvent addition, DCM / Acetone",HCl-1
same,Crystal Form,"anti-solvent addition, DCM / CPME",HCl-1
same,Crystal Form,"anti-solvent addition, DCM / EtOAc",HCl-1
same,Crystal Form,"anti-solvent addition, DCM / Hexane",HCl-1
same,Crystal Form,"anti-solvent addition, IPA / 1,4-dioxane",CL
same,Crystal Form,"anti-solvent addition, IPA / Acetone",CL
same,Crystal Form,"anti-solvent addition, IPA / Heptane",HCl-1
same,Crystal Form,"anti-solvent addition, IPA / IPAc",HCl-2
same,Crystal Form,"anti-solvent addition, IPA / MTBE",HCl-2
same,Crystal Form,"anti-solvent addition, MeOH / Acetone",CL
same,Crystal Form,"anti-solvent addition, MeOH / EtOAc",HCl-1
same,Crystal Form,"anti-solvent addition, MeOH / MTBE",HCl-1
same,Crystal Form,"anti-solvent addition, MeOH / THF",HCl-1
same,Crystal Form,"anti-solvent addition, MeOH / Toluene",HCl-2
same,Crystal Form,"anti-solvent addition, Water / 1,4-dioxane",CL
same,Crystal Form,"anti-solvent addition, Water / ACN",CL
same,Crystal Form,"anti-solvent addition, Water / THF",CL
same,Crystal Form,"liquid vapor diffusion RT, DMSO / Acetone",CL
same,Crystal Form,"liquid vapor diffusion RT, DMSO / EtOAc",CL
same,Crystal Form,"liquid vapor diffusion RT, DMSO / Toluene",CL
same,Crystal Form,"liquid vapor diffusion RT, MeOH / 2-MeTHF",CL
same,Crystal Form,"liquid vapor diffusion RT, MeOH / IPAc",CL
same,Crystal Form,"liquid vapor diffusion RT, MeOH / MTBE",CL
same,Crystal Form,"liquid vapor diffusion RT, NMP / 1,4-dioxane",CL
same,Crystal Form,"liquid vapor diffusion RT, NMP / Acetone",CL
same,Crystal Form,"liquid vapor diffusion RT, NMP / MTBE",HCl-1
same,Crystal Form,"polymer induced RT, ACN/H2O (9:1), PEO (Poloxamer 407)",gel
same,Crystal Form,"polymer induced RT, Acetone/DCM (9:1), PVP",HCl-2
same,Crystal Form,"polymer induced RT, Acetone/H2O (9:1), PVA",HCl-2
same,Crystal Form,"polymer induced RT, EtOH/Heptane (3/7), HPMC",HCl-1
same,Crystal Form,"polymer induced RT, MTBE/IPA (9:1), PVA",HCl-1
same,Crystal Form,"polymer induced RT, MeOH/H2O (9:1), PVP",gel
same,Crystal Form,"slow evaporation RT, 7 days, ACN",HCl-1
same,Crystal Form,"slow evaporation RT, 7 days, Acetone",HCl-1
same,Crystal Form,"slow evaporation RT, 7 days, DCM",HCl-2
same,Crystal Form,"slow evaporation RT, 7 days, DMF",CL
same,Crystal Form,"slow evaporation RT, 7 days, DMSO",CL
same,Crystal Form,"slow evaporation RT, 7 days, MeOH",gel
same,Crystal Form,"slow evaporation RT, 7 days, NMP",CL
same,Crystal Form,"slow evaporation RT, 7 days, Water",HCl-1
same,Crystal Form,"slow evaporation RT, 7 days, nPA",HCl-1
same,Crystal Form,"slurry 50 °C, 3 days, 1,4-dioxane",HCl-1
same,Crystal Form,"slurry 50 °C, 3 days, 2-MeTHF",HCl-1
same,Crystal Form,"slurry 50 °C, 3 days, ACN",HCl-1
same,Crystal Form,"slurry 50 °C, 3 days, Acetone/Toluene (1:1)",HCl-1
same,Crystal Form,"slurry 50 °C, 3 days, EtOAc",HCl-1
same,Crystal Form,"slurry 50 °C, 3 days, EtOH",HCl-1
same,Crystal Form,"slurry 50 °C, 3 days, IPA",HCl-1
same,Crystal Form,"slurry 50 °C, 3 days, IPAc",HCl-1
same,Crystal Form,"slurry 50 °C, 3 days, MEK",HCl-1
same,Crystal Form,"slurry 50 °C, 3 days, MIBK",HCl-1
same,Crystal Form,"slurry 50 °C, 3 days, MTBE",HCl-1
same,Crystal Form,"slurry 50 °C, 3 days, MeOH",HCl-1
same,Crystal Form,"slurry 50 °C, 3 days, THF/H2O (9:1)",gel
same,Crystal Form,"slurry 50 °C, 3 days, THF/n-Heptane (1:1)",HCl-1
same,Crystal Form,"slurry 50 °C, 3 days, Toluene",HCl-1
same,Crystal Form,"slurry 50 °C, 3 days, Water",HCl-1
same,Crystal Form,"slurry RT, 7 days, 1,4-dioxane",HCl-2
same,Crystal Form,"slurry RT, 7 days, ACN",HCl-2
same,Crystal Form,"slurry RT, 7 days, Acetone/H2O (aw = 0.2)",HCl-2
same,Crystal Form,"slurry RT, 7 days, Acetone/H2O (aw = 0.4)",HCl-2
same,Crystal Form,"slurry RT, 7 days, Acetone/H2O (aw = 0.6)",gel
same,Crystal Form,"slurry RT, 7 days, Acetone/H2O (aw = 0.8)",gel
same,Crystal Form,"slurry RT, 7 days, Acetone/Toluene (1:1)",HCl-1
same,Crystal Form,"slurry RT, 7 days, Anisole",HCl-1
same,Crystal Form,"slurry RT, 7 days, CPME",HCl-1
same,Crystal Form,"slurry RT, 7 days, EtOAc",HCl-1
same,Crystal Form,"slurry RT, 7 days, H2O",CL
same,Crystal Form,"slurry RT, 7 days, IPA",HCl-1
same,Crystal Form,"slurry RT, 7 days, IPAc",HCl-1
same,Crystal Form,"slurry RT, 7 days, MEK",HCl-1
same,Crystal Form,"slurry RT, 7 days, MIBK",HCl-1
same,Crystal Form,"slurry RT, 7 days, MTBE",HCl-1
same,Crystal Form,"slurry RT, 7 days, MeOH",HCl-1
same,Crystal Form,"slurry RT, 7 days, PEG",amorphous
same,Crystal Form,"slurry RT, 7 days, THF",HCl-2
same,Crystal Form,"slurry RT, 7 days, THF/n-Heptane (1:1)",HCl-1
same,Crystal Form,"slurry RT, 7 days, Toluene",HCl-1
same,Crystal Form,"solid vapor diffusion RT, 1,4-dioxane",HCl-1
same,Crystal Form,"solid vapor diffusion RT, 2-MeTHF",HCl-1
same,Crystal Form,"solid vapor diffusion RT, ACN",HCl-1
same,Crystal Form,"solid vapor diffusion RT, Acetone",HCl-1
same,Crystal Form,"solid vapor diffusion RT, DCM",CL
same,Crystal Form,"solid vapor diffusion RT, EtOAc",HCl-1
same,Crystal Form,"solid vapor diffusion RT, EtOH",CL
same,Crystal Form,"solid vapor diffusion RT, Hexane",HCl-1
same,Crystal Form,"solid vapor diffusion RT, MEK",HCl-1
same,Crystal Form,"solid vapor diffusion RT, MTBE",HCl-1
same,Crystal Form,"solid vapor diffusion RT, MeOH",CL
same,Crystal Form,"solid vapor diffusion RT, Toluene",HCl-1
same,Crystal Form,"thermal cycling, 7 days, ACN",HCl-1
same,Crystal Form,"thermal cycling, 7 days, DMSO",HCl-1
same,Crystal Form,"thermal cycling, 7 days, EtOH/acetone (3:7)",gel
same,Crystal Form,"thermal cycling, 7 days, EtOH/n-Heptane (3:7)",HCl-1
same,Crystal Form,"thermal cycling, 7 days, IPA",HCl-2
same,Crystal Form,"thermal cycling, 7 days, IPA/Toluene (3:7)",HCl-2
same,Crystal Form,"thermal cycling, 7 days, MeOH/IPAc (1:9)",HCl-1
